Laboratory results taken from patent US20240025906A1 (NEURON23, INC., priority 2022, published 2024).

What was measured:
TYK2 JH2 = target: T1, TYK2 JH2 (Homo sapiens, UniProt P29597); assay: TYK2 JH2 binding assay (KINOMEscan KdELECT competitive binding); settings: TYK2 JH2 domain, DiscoverX KINOMEscan KdELECT (Assay A); read-out: Biochemical TYK2_DiscoverX_JH2_BND_Kd
T1 construct: purchased DiscoverX (KINOMEscan KdELECT service); host or cells: E. coli BL21-derived (T7 phage display) or HEK-293
In short: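 Beads carrying a biotinylated ligand were mixed with tagged JH2 kinase and compound (11 points, 3-fold steps, 0.9% DMSO) and shaken 1 h at room temperature. After washing, kinase was released with 0.5 μM untagged ligand over 30 min and measured by qPCR to derive Kd.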

[1] = tested on: JAK1/TYK2 pSTAT5 (Tyr694/699) in THP-1 cell line; assay: IFNa-stimulated JAK1/TYK2 pSTAT5 (Tyr694/699) inhibition cellular assay, AlphaLISA; format: cell-based; settings: Homo sapiens; THP-1 cells, IFNa-stimulated, AlphaLISA (Assay B); read-out: Cellular_THP1_IFNa-pSTATS_TYK2
In short: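 THP-1 cells (2e4/well in HBSS) were preincubated with compound (8 points, 6-fold steps from 10000 nM final) for 1 h at 37 °C, then stimulated with IFNa (added at 100 ng/mL) for 30 min. Lysate pSTAT5 was read by AlphaLISA at 615 nm. IC50 came from a 4-parameter fit with bottom 0 and Hill −1.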

T1 sequence (P29597 589-875 limits assumed): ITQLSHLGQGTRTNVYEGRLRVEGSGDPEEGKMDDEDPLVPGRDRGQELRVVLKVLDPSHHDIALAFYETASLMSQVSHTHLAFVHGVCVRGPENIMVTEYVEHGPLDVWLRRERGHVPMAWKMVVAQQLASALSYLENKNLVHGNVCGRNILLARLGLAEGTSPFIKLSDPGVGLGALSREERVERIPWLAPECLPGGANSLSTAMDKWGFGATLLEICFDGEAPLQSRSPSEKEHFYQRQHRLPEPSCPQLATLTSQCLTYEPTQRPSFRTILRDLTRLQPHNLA

Compound	Kd (TYK2 JH2) [nM]	IC50 [1] [nM]
CNc1ncc(-c2nc3cc(N4CCO[C@H](C)C4)ccc3o2)c2cc(NC(=O)C3CC3)ncc12 [Example 302, (R)-N-(8-(methylamino)-5-(5-(2-methylmorpholino)benzo[d]oxazol-2-yl)-2,7-naphthyridin-3-yl)cyclopropanecarboxamide]	≤ 100	≤ 500
CNc1ncc(-c2nc3cc(N4CCS(=O)(=O)CC4)ccc3o2)c2cc(NC(=O)C3CC3)ncc12 [Example 303, N-(5-(5-(1,1-dioxidothiomorpholino)benzo[d]oxazol-2-yl)-8-(methylamino)-2,7-naphthyridin-3-yl)cyclopropanecarboxamide]	≤ 100	≤ 500
CNc1ncc(-c2nc3cc(N4CCN(C)CC4)ccc3o2)c2cc(NC(=O)C3CC3)ncc12 [Example 304, N-(8-(methylamino)-5-(5-(4-methylpiperazin-1-yI)benzo[d]oxazol-2-y1)-2,7-naphthyridin-3-yl)cyclopropanecarboxamide]	≤ 100	≤ 500
CNc1ncc(-c2nc3cc(N4CC5CCC(C4)O5)ccc3o2)c2cc(NC(=O)C3CC3)ncc12 [Example 305]	≤ 100	≤ 500
CNc1ncc(-c2nc3cc(N4C[C@H]5COC[C@H]5C4)ccc3o2)c2cc(NC(=O)C3CC3)ncc12 [Example 306, N-(8-(methylamino)-5-(5-((3aR,6a.S)-tetrahydro-1H-furo[3,4-c]pyrrol-5(3H)-yl)benzo[d]oxazol-2-y1)-2,7-naphthyridin-3-yl)cyclopropanecarboxamide]	≤ 100	≤ 500
CNc1ncc(-c2nc3cc(N4CCN(c5ccncc5)CC4)ccc3o2)c2cc(NC(=O)C3CC3)ncc12 [Example 307, N-(8-(methylamino)-5-(5-(4-(pyridin-4-yl)piperazin-1-yl)benzo[d]oxazol-2-yl)-2,7-naphthyridin-3-yl)cyclopropanecarboxamide]	≤ 100	≤ 500
CNc1ncc(-c2nc3cc(N4CCOC[C@@H]4C)ccc3o2)c2cc(NC(=O)C3CC3)ncc12 [Example 308, (S)-N-(8-(methylamino)-5-(5-(3-methylmorpholino)benzo[d]oxazol-2-yl)-2,7-naphthyridin-3-yl)cyclopropanecarboxamide]	≤ 100	≤ 500
CNc1ncc(-c2nc3cc(N4CCOC[C@H]4C)ccc3o2)c2cc(NC(=O)C3CC3)ncc12 [Example 309, (R)-N-(8-(methylamino)-5-(5-(3-methylmorpholino)benzo[d]oxazol-2-yl)-2,7-naphthyridin-3-yl)cyclopropanecarboxamide]	≤ 100	≤ 500
CNc1ncc(-c2nc3cc(N4CCC5(CC4)COC5)ccc3o2)c2cc(NC(=O)C3CC3)ncc12 [Example 310, N-(5-(5-(2-oxa-7-azaspiro[3.5]nonan-7-yl)benzo[d]oxazol-2-y1)~8-(methylamino)-2,7-naphthyridin-3-yl)cyclopropanecarboxamide]	≤ 100	≤ 500
CNc1ncc(-c2nc3cc(N4C5CCC4COC5)ccc3o2)c2cc(NC(=O)C3CC3)ncc12 [Example 311, N-(5-(5-(3-oxa-8-azabicyclo[3.2.1]octan-8-yl)benzo[d]oxazol-2-y1)-8-(methylamino)-2,7-naphthyridin-3-yl)cyclopropanecarboxamide]	≤ 100	≤ 500
CNc1ncc(-c2nc3cc(OC4(C)COC4)ccc3o2)c2cc(NC(=O)C3CC3)ncc12 [Example 312, N-(8-(methylamino)-5-(5-((3-methyloxetan-3-yl)oxy)benzo[d]oxazol-2-yl)-2,7-naphthyridin-3-yl)cyclopropanecarboxamide]	≤ 100	≤ 500
CNc1ncc(-c2nc3cc(N4CCCC5(CCO5)C4)ccc3o2)c2cc(NC(=O)C3CC3)ncc12 (stereo not drawn) [Example 313, N-(5-(5-(1-oxa-6-azaspiro[3.5]nonan-6-yl)benzo[d]oxazol-2-yl)-8-(methylamino)-2,7-naphthyridin-3-yl)cyclopropanecarboxamide]	≤ 100	≤ 500
CNc1ncc(-c2nc3cc(N4CCN(C5COC5)CC4)ccc3o2)c2cc(NC(=O)C3CC3)ncc12 [Example 314, N-(8-(methylamino)-5-(5-(4-(oxetan-3-yl)piperazin-1-yl)benzo[d]oxazol-2-yl)-2,7-naphthyridin-3-yl)cyclopropanecarboxamide]	≤ 100	≤ 500
CNc1ncc(-c2nc3cc(N4C[C@@H](C)O[C@@H](C)C4)ccc3o2)c2cc(NC(=O)C3CC3)ncc12 [Example 315, N-(5-(5-((2R,6S)~2,6-dimethylmorpholino)benzo[d]oxazol-2-yl)-8-(methylamino)-2,7-naphthyridin-3-yl)cyclopropanecarboxamide]	≤ 100	≤ 500
CNc1ncc(-c2nc3cc(N4CCOC(C)(C)C4)ccc3o2)c2cc(NC(=O)C3CC3)ncc12 [Example 317, N-(5-(5-(2,2-dimethylmorpholino)benzo[d]oxazol-2-yl)-8-(methylamino)-2,7-naphthyridin-3-yl)cyclopropanecarboxamide]	≤ 100	≤ 500
CNc1ncc(-c2nc3cc(N4CCCOCC4)ccc3o2)c2cc(NC(=O)C3CC3)ncc12 [Example 318, N-(5-(5-(1,4-oxazepan-4-yl)benzo[d]oxazol-2-yl)-8-(methylamino)-2,7-naphthyridin-3-yl)cyclopropanecarboxamide]	≤ 100	≤ 500
CNc1ncc(-c2nc3cc(N4CC(CC(F)F)C4)ccc3o2)c2cc(NC(=O)C3CC3)ncc12 [Example 319, N-(5-(5-(3-(2,2-difluoroethyl)azetidin-1-yl)benzo[d]oxazol-2-yl)-8-(methylamino)-2,7-naphthyridin-3-yl)cyclopropanecarboxamide]	≤ 100	≤ 500
CNc1ncc(-c2nc3cc(N4CC[C@H]4C#N)ccc3o2)c2cc(NC(=O)C3CC3)ncc12 [Example 320, (S)—N-(5-(5-(2-cyanoazetidin-1-yl)benzo[d]oxazol-2-yl)-8-(methylamino)-2,7-naphthyridin-3-yl)cyclopropanecarboxamide]	≤ 100	≤ 500
CNc1ncc(-c2nc3cc(N4CC[C@H]4C(N)=O)ccc3o2)c2cc(NC(=O)C3CC3)ncc12 [Example 321, (S)-1-(2-(6-(cyclopropanecarboxamido)-1-(methylamino)-2,7-naphthyridin-4-yl)benzo[d]oxazol-5-yl)azetidine-2-carboxamide]	≤ 100	≤ 500
CNc1ncc(-c2nc3cc(N4CC5(CN(C(C)=O)C5)C4)ccc3o2)c2cc(NC(=O)C3CC3)ncc12 [Example 322, N-(5-(5-(6-acetyl-2,6-diazaspiro[3.3]heptan-2-yl)benzo[d]oxazol-2-yl)-8-(methylamino)-2,7-naphthyridin-3-yl)cyclopropanecarboxamide]	≤ 100	≤ 500
CNc1ncc(-c2nc3cc(N4CC(OCCC#N)C4)ccc3o2)c2cc(NC(=O)C3CC3)ncc12 [Example 323, N-(5-(5-(3-(2-cyanoethoxy)azetidin-1-yl)benzo[d]oxazol-2-yl)-8-(methylamino)-2,7-naphthyridin-3-yl)cyclopropanecarboxamide]	≤ 100	≤ 500
